# Laboratory results published in publication PMC11859264, “Discovery of a Novel Multitarget Analgesic Through an In Vivo-Guided Approach” (Pharmaceuticals, 2025).
# Tested on: formalin model
# Test: Formalin test in mice (primary in vivo screening and ED50)
# Design: species or system ICR male mice
# Conditions: Mus musculus, ip; mice, intraperitoneal, doses 0.1, 1, 5 and 10 mg/kg, second phase; read-out: ED50 in the second phase of the formalin model
# Method: For primary screening, the synthesized compounds were administered to mice via intraperitoneal injection at a dose of 5 mg/kg using the formalin model. The percentage inhibition in the second phase, relative to the vehicle control (DMSO/cremophor EL/distilled water = 10:10:80), was calculated.
# Each compound was assessed using four doses (0.1, 1, 5, and 10 mg/kg) by intraperitoneal injection.
# ICR male mice weighing 23–25 g was purchased from Samtako Korea (Osan, Republic of Korea). ICR mice were housed four per cage in a room with 12 h light–dark cycles. The temperature and relative humidity of the room were maintained at 22 ± 2 °C and 50 ± 5%, respectively. Food and water were available ad libitum. The procedures for animal testing were approved by Medifron Animal Care and Use Committees (Approval number; Medifron 2019-9). Efforts were made to minimize animal suffering and to reduce the number of animals used.
# Mice were randomly assigned to five groups (four per group) and single-dose drugs were administered by intraperitoneal injection. The formalin-induced licking paw test was modified from the method described by Dubuisson and Dennis. Each mouse was acclimated to an acrylic observation chamber for at least 30 min before the injection of formalin. Twenty microliters of 2% formalin were injected subcutaneously into the right side of the hind paw. Each mouse was then placed in an individual clear plastic observational chamber (15 × 15 × 15 cm, volume = […] or 3.375 L), and the pain response was recorded for a period of 30 min. The summation of time (in seconds) spent in licking and biting responses of the injected paw during each 5 min block was measured as an indicator of the pain response. The first period (early phase) was recorded 0–5 min after the injection of formalin, and the second period (late phase) was recorded 20–30 min after the injection. The test compound was administered intraperitoneally 30 min before the formalin injection at […]: 0.1, 1, 5, and 10 mg/kg. The vehicle was DMSO/Cremophor EL/distilled water (10/10/80). The data were expressed as the mean ± standard error of the mean (SEM). Statistical analysis was assessed by one-way analysis of variance (ANOVA) with Bonferroni’s post hoc test. Statistical significance was set at p-value < 0.05, with values of p <0.001 considered highly significant.
row,Structure (SMILES),ED50 [mg/kg]
1,"Cc1ccc(Sc2ccccc2N2CCN(CCNC(=O)c3c[nH]c4ccc(C#N)cc34)CC2)c(C)c1 [Compound 31, 5-Cyano-N-(2-(4-(2-((2,4-dimethylphenyl)thio)phenyl)piperazin-1-yl)ethyl)-1H-indole-3-carboxamide]",2.66
2,"N#Cc1ccc2[nH]cc(C(=O)NCCCN3CCN(c4cccc(Cl)c4)CC3)c2c1 [Compound 37, N-(3-(4-(3-Chlorophenyl)piperazin-1-yl)propyl)-5-cyano-1H-indole-3-carboxamide]",3.2
3,"N#Cc1ccc2[nH]cc(C(=O)NCCN3CCN(c4cccc(C(F)(F)F)c4)CC3)c2c1 [Compound 22, 5-Cyano-N-(2-(4-(3-(trifluoromethyl)phenyl)piperazin-1-yl)ethyl)-1H-indole-3-carboxamide]",1.3
4,"N#Cc1ccc2[nH]cc(C(=O)NCCCN3CCN(c4ccc5ccccc5n4)CC3)c2c1 [Compound 45, 5-Cyano-N-(3-(4-(quinolin-2-yl)piperazin-1-yl)propyl)-1H-indole-3-carboxamide]",0.93
5,"N#Cc1ccc2[nH]cc(C(=O)NCCN3CCN(c4cccc(Cl)c4)CC3)c2c1 [Compound 21, N-(2-(4-(3-Chlorophenyl)piperazin-1-yl)ethyl)-5-cyano-1H-indole-3-carboxamide]",2.3

# Same assay, conditions: mice, 5 mg/kg intraperitoneal, second phase
row,Structure (SMILES),% Inhibition in the second phase of the formalin model relative to vehicle control [%]
1,"N#Cc1ccc2[nH]cc(C(=O)NCCN3CCN(c4nsc5ccccc45)CC3)c2c1 [Compound 32, N-(2-(4-(Benzo[d]isothiazol-3-yl)piperazin-1-yl)ethyl)-5-cyano-1H-indole-3-carboxamide]",14.3
2,"N#Cc1ccc2[nH]cc(C(=O)NCCCN3CCN(c4ncccc4Cl)CC3)c2c1 [Compound 43, N-(3-(4-(3-Chloropyridin-2-yl)piperazin-1-yl)propyl)-5-cyano-1H-indole-3-carboxamide]",45.3
3,"N#Cc1ccc2[nH]cc(C(=O)NCCN3CCN(c4ccc5oc(C(N)=O)cc5c4)CC3)c2c1 [Compound 30, N-(2-(4-(2-Carbamoylbenzofuran-5-yl)piperazin-1-yl)ethyl)-5-cyano-1H-indole-3-carboxamide]",23.8
4,"N#Cc1ccc2[nH]cc(C(=O)NCCN3CCC(n4c(=O)[nH]c5cc(Cl)ccc54)CC3)c2c1 [Compound 53, N-(2-(4-(5-Chloro-2-oxo-2,3-dihydro-1H-benzo[d]imidazol-1-yl)piperidin-1-yl)ethyl)-5-cyano-1H-indole-3-carboxamide]",14.3
5,"N#Cc1ccc2[nH]cc(C(=O)NCCCN3CCN(c4ccc5oc(C(N)=O)cc5c4)CC3)c2c1 [Compound 46, N-(3-(4-(2-Carbamoylbenzofuran-5-yl)piperazin-1-yl)propyl)-5-cyano-1H-indole-3-carboxamide]",49.2
6,"N#Cc1ccc2[nH]cc(C(=O)NCCN3CCC(c4noc5cc(F)ccc45)CC3)c2c1 [Compound 52, 5-Cyano-N-(2-(4-(6-fluorobenzo[d]isoxazol-3-yl)piperidin-1-yl)ethyl)-1H-indole-3-carboxamide]",46.7
7,"N#Cc1ccc2[nH]cc(C(=O)NCCN3CCN(C(=O)C4COc5ccccc5O4)CC3)c2c1 (stereo not drawn) [Compound 35, 5-Cyano-N-(2-(4-(2,3-dihydrobenzo[b][1,4]dioxine-2-carbonyl)piperazin-1-yl)ethyl)-1H-indole-3-carboxamide]",0.4
8,"N#Cc1ccc2[nH]cc(C(=O)NCCN3CCN(c4cccc(F)c4)CC3)c2c1 [Compound 20, 5-Cyano-N-(2-(4-(3-fluorophenyl)piperazin-1-yl)ethyl)-1H-indole-3-carboxamide]",3.1
9,"N#Cc1ccc2[nH]cc(C(=O)NCCCN3CCN(C(=O)c4ccc(F)cc4)CC3)c2c1 [Compound 49, 5-Cyano-N-(3-(4-(4-fluorobenzoyl)piperazin-1-yl)propyl)-1H-indole-3-carboxamide]",20.3
10,"N#Cc1ccc2[nH]cc(C(=O)NCCN3CCN(c4ccc(C(F)(F)F)cc4)CC3)c2c1 [Compound 25, 5-Cyano-N-(2-(4-(4-(trifluoromethyl)phenyl)piperazin-1-yl)ethyl)-1H-indole-3-carboxamide]",19.8
11,"N#Cc1ccc2[nH]cc(C(=O)NCCN3CCN(c4ccc(F)cc4)CC3)c2c1 [Compound 23, 5-Cyano-N-(2-(4-(4-fluorophenyl)piperazin-1-yl)ethyl)-1H-indole-3-carboxamide]",35.8
12,"N#Cc1ccc2[nH]cc(C(=O)NCCCN3CCN(c4ccc(C(F)(F)F)cc4)CC3)c2c1 [Compound 41, 5-Cyano-N-(3-(4-(4-(trifluoromethyl)phenyl)piperazin-1-yl)propyl)-1H-indole-3-carboxamide]",16.5
13,"N#Cc1ccc2[nH]cc(C(=O)NCCN3CCN(c4cccc(C(F)(F)F)n4)CC3)c2c1 [Compound 26, 5-Cyano-N-(2-(4-(6-(trifluoromethyl)pyridin-2-yl)piperazin-1-yl)ethyl)-1H-indole-3-carboxamide]",48.6
14,"N#Cc1ccc2[nH]cc(C(=O)NCCCN3CCN(c4ncccc4C(F)(F)F)CC3)c2c1 [Compound 44, 5-Cyano-N-(3-(4-(3-(trifluoromethyl)pyridin-2-yl)piperazin-1-yl)propyl)-1H-indole-3-carboxamide]",3.7
15,"N#Cc1ccc2[nH]cc(C(=O)NCCCN3CCC(n4c(=O)[nH]c5cc(Cl)ccc54)CC3)c2c1 [Compound 55, N-(3-(4-(5-Chloro-2-oxo-2,3-dihydro-1H-benzo[d]imidazol-1-yl)piperidin-1-yl)propyl)-5-cyano-1H-indole-3-carboxamide]",24.0
16,"N#Cc1ccc2[nH]cc(C(=O)NCCN3CCN(C(=O)c4cccc(C(F)(F)F)c4)CC3)c2c1 [Compound 34, 5-Cyano-N-(2-(4-(3-(trifluoromethyl)benzoyl)piperazin-1-yl)ethyl)-1H-indole-3-carboxamide]",2.1
17,"NCC1(CC(=O)O)CCCCC1 [gabapentin, reference compound]",70.7
18,"N#Cc1ccc2[nH]cc(C(=O)NCCN3CCN(C(=O)c4ccc(F)cc4)CC3)c2c1 [Compound 33, 5-Cyano-N-(2-(4-(4-fluorobenzoyl)piperazin-1-yl)ethyl)-1H-indole-3-carboxamide]",24.2
19,"N#Cc1ccc2[nH]cc(C(=O)NCCN3CCN(c4ccc(Cl)cc4)CC3)c2c1 [Compound 24, N-(2-(4-(4-Chlorophenyl)piperazin-1-yl)ethyl)-5-cyano-1H-indole-3-carboxamide]",1.6
20,"N#Cc1ccc2[nH]cc(C(=O)NCCCN3CCN(C(=O)c4cccc(C(F)(F)F)c4)CC3)c2c1 [Compound 50, 5-Cyano-N-(3-(4-(3-(trifluoromethyl)benzoyl)piperazin-1-yl)propyl)-1H-indole-3-carboxamide]",2.9
21,"N#Cc1ccc2[nH]cc(C(=O)NCCCN3CCN(c4cccc(C(F)(F)F)n4)CC3)c2c1 [Compound 42, 5-Cyano-N-(3-(4-(6-(trifluoromethyl)pyridin-2-yl)piperazin-1-yl)propyl)-1H-indole-3-carboxamide]",45.7
22,"N#Cc1ccc2[nH]cc(C(=O)NCCCN3CCN(c4ccc(Cl)cc4)CC3)c2c1 [Compound 40, N-(3-(4-(4-Chlorophenyl)piperazin-1-yl)propyl)-5-cyano-1H-indole-3-carboxamide]",4.7
23,"N#Cc1ccc2[nH]cc(C(=O)NCCN3CCN(c4ncccc4Cl)CC3)c2c1 [Compound 27, N-(2-(4-(3-Chloropyridin-2-yl)piperazin-1-yl)ethyl)-5-cyano-1H-indole-3-carboxamide]",48.0
24,"N#Cc1ccc2[nH]cc(C(=O)NCCCN3CCN(C(=O)C4COc5ccccc5O4)CC3)c2c1 (stereo not drawn) [Compound 51, 5-Cyano-N-(3-(4-(2,3-dihydrobenzo[b][1,4]dioxine-2-carbonyl)piperazin-1-yl)propyl)-1H-indole-3-carboxamide]",27.3
25,"N#Cc1ccc2[nH]cc(C(=O)NCCCN3CCN(c4cccc(C(F)(F)F)c4)CC3)c2c1 [Compound 38, 5-Cyano-N-(3-(4-(3-(trifluoromethyl)phenyl)piperazin-1-yl)propyl)-1H-indole-3-carboxamide]",37.1
